According to ChEMBL document CHEMBL5370642, “Synthesis and Bioevaluation of 3-(Arylmethylene)indole Derivatives: Discovery of a Novel ALK Modulator with Antiglioblastoma Activities” (J Med Chem, 2023):
Active and inactive are the calls of the source. No cut-off for these calls is given here.

Columns and labels:
HeLa = assay: Anti-proliferative activity against human HeLa cells assessed as inhibition rate at 160 uM incubated for 24 to 72 hrs by CCK8 assay relative to control; type: functional; conditions: time 24-72 hrs
[1] = target: T1, ALK tyrosine kinase receptor (Homo sapiens, UniProt Q9UM73); conditions: U-87 MG, dose 0.5-2 µM, time 24.0 hrs
T1 sequence (Q9UM73 19-1620 limits assumed): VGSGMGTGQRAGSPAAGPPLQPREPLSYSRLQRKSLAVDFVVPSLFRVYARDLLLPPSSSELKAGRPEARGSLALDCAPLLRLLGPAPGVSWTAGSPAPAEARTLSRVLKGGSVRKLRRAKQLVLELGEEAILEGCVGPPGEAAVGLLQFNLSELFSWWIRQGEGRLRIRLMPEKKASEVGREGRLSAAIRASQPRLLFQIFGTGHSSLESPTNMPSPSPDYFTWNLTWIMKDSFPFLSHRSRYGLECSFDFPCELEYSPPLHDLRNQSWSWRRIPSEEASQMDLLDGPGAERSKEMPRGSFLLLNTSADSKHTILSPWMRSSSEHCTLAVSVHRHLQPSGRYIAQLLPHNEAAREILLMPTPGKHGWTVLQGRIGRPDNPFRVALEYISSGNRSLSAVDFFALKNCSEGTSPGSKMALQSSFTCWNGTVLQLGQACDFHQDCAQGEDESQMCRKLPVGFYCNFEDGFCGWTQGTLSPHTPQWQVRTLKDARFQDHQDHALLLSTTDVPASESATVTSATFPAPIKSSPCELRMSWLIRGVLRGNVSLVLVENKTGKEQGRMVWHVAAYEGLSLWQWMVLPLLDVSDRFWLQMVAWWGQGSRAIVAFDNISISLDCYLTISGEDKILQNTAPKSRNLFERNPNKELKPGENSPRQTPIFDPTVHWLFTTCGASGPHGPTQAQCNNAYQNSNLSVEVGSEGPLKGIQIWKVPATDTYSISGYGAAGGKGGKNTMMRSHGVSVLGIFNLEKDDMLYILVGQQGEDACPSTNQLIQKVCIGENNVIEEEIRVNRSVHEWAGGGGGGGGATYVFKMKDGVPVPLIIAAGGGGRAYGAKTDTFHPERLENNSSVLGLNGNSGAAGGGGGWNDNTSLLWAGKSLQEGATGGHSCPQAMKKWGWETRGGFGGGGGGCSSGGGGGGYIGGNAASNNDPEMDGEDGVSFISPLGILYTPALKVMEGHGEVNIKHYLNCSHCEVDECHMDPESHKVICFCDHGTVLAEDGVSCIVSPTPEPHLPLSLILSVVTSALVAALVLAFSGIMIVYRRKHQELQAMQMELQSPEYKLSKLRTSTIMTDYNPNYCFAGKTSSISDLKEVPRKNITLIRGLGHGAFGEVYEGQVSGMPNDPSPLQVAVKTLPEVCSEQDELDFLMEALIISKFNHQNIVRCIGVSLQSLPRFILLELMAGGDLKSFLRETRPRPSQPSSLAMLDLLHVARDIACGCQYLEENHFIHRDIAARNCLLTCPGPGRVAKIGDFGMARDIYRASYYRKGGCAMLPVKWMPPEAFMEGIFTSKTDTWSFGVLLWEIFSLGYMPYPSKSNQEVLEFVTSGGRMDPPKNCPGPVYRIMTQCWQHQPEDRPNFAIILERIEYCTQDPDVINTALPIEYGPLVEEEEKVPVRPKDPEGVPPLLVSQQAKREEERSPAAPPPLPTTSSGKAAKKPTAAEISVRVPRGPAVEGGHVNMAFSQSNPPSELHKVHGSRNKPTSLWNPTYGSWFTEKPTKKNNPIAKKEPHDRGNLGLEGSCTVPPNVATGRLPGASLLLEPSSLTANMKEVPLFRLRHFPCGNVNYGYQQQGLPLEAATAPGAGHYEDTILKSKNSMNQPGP

GL261 [2] = assay: Induction of apoptosis in mouse GL261 cells assessed as necrotic cells measured at 0.5 to 2 uM after 72 hrs by flow cytometry; type: functional, cell-based; conditions: dose 0.5-2 µM
[3] = target: T1, ALK tyrosine kinase receptor; conditions: U-87 MG, dose 0.5-2 µM, time 24.0 hrs; remark: listed apart in the source
GL261 [4] = assay: Induction of cell cycle arrest in mouse GL261 cells assessed as accumulation at S phase at 1 uM incubated for 72 hrs by flow cytometry (reference value: 13.9%); type: functional, cell-based
GL261 [5] = assay: Induction of apoptosis in mouse GL261 cells assessed as increase in annexin-V+/PI- cells at 0.5 to 2 uM by flow cytometry; type: functional, cell-based; conditions: dose 0.5-2 µM, time 24-72 hrs, TDE = time-dependent effect
[6] = MRT (0 to infinity) in C57BL6/J mouse at 5 mg/kg, ip measured upto 24 hrs by LC-MS/MS analysis; type: ADME, organism-based; conditions: in vivo
[7] = Tmax in C57BL6/J mouse at 5 mg/kg, iv measured upto 24 hrs by LC-MS/MS analysis; type: ADME, organism-based; conditions: in vivo
GL261 [8] = assay: Induction of autophagy in mouse GL261 cells transfected with mRFP-GFPLC3 adenovirus assessed as yellow fluorescence at 2 uM incubated for 48 hrs by confocal microscopy; type: functional, cell-based
[9] = Half life in C57BL6/J mouse at 5 mg/kg, iv measured upto 24 hrs by LC-MS/MS analysis; type: ADME, organism-based; conditions: in vivo
GL261 [10] = assay: Induction of apoptosis in mouse GL261 cells assessed as increase in cleaved caspase 3 level measured at 0.5 to 2 uM after 24 hrs by Western blot analysis; type: functional, cell-based; conditions: dose 0.5-2 µM
[11] = Volume of distribution at steady state in C57BL6/J mouse at 5 mg/kg, iv measured upto 24 hrs by LC-MS/MS analysis; type: ADME, organism-based; conditions: in vivo, read-out: Vdss
Mus musculus = assay: Anti glioblastoma activity against mouse GL261-mNeonGreenLuc cells stereotaxically injected in corpus striatum of orthotopic glioblastoma mouse model assessed as increase in survival rate at 5 mg/kg, ip once daily measured on day 21; type: functional, organism-based
[12] = target: ALK tyrosine kinase receptor (Mus musculus) (UniProt P97793); assay: Inhibition of ALK phosphorylation in mouse GL261 cells at 0.5 to 2 uM incubated for 24 hrs by Western blot analysis; type: cell-based; conditions: dose 0.5-2 µM
ALK tyrosine kinase receptor (Mus musculus), sequence (P97793 whole entry): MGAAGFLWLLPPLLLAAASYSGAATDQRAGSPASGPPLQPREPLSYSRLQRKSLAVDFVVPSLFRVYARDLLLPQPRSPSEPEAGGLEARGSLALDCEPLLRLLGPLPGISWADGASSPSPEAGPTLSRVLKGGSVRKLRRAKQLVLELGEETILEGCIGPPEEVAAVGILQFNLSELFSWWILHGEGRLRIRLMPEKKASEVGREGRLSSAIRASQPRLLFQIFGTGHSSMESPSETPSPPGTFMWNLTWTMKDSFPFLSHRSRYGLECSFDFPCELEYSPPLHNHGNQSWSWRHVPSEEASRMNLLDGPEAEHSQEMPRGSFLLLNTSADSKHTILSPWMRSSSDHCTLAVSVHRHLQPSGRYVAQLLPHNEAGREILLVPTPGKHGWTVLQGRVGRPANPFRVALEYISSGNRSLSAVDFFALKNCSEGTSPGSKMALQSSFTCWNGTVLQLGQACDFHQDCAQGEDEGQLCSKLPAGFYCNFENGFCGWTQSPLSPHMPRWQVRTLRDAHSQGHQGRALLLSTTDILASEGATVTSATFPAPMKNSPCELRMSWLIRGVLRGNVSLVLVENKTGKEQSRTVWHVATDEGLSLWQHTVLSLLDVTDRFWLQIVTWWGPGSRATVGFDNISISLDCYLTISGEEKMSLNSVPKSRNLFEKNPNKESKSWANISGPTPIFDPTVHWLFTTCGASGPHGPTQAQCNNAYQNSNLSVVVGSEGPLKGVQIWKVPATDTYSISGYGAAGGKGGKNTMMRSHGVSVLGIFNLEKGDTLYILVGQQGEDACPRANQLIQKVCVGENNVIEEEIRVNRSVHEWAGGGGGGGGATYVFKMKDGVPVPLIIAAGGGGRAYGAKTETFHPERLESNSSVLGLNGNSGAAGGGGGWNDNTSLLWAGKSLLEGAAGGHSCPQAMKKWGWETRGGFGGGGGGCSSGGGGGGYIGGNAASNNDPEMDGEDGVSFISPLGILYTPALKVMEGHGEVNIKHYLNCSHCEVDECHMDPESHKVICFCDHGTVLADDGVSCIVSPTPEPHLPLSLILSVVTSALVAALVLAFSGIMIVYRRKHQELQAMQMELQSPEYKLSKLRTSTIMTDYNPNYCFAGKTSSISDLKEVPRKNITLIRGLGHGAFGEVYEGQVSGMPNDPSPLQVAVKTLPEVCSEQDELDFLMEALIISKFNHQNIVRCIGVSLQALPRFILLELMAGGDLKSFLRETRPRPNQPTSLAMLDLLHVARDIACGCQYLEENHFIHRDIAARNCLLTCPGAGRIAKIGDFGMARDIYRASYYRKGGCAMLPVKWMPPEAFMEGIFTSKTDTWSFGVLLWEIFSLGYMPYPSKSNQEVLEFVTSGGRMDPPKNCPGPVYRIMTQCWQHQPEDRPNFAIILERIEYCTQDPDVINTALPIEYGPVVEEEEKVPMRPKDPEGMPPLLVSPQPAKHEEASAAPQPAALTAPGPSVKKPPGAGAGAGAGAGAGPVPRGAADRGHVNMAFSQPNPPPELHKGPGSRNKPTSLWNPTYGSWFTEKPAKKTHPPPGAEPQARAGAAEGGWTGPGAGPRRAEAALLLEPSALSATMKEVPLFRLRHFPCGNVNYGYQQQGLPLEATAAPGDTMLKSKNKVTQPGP

U-87 MG [13] = assay: Anti-proliferative activity against human U-87 MG cells assessed as decrease in cell viability at 0.5 to 10 uM by CCK8 assay; type: functional, cell-based; conditions: U-87MG ATCC, dose 0.5-10 µM, time 24-72 hrs, TDE = time-dependent effect
[14] = AUC (0 to 8hrs) in C57BL6/J mouse at 5 mg/kg, ip measured upto 24 hrs by LC-MS/MS analysis; type: ADME, organism-based; design: dose 5 mg/kg, time < 24 hrs, route ip; conditions: in vivo
GL261 [15] = assay: Induction of autophagy in mouse GL261 cells assessed as cell viability pretreated with 5 uM CQ for 4 hrs followed by treated at 0.5 to 2 uM measured after 48 hrs by CCK8 assay; type: functional, cell-based
[16] = MRT (0 to 8hrs) in C57BL6/J mouse at 5 mg/kg, iv measured upto 24 hrs by LC-MS/MS analysis; type: ADME, organism-based; conditions: in vivo
[17] = Apparent volume of distribution in C57BL6/J mouse at 5 mg/kg, iv measured upto 24 hrs by LC-MS/MS analysis; type: ADME, organism-based; conditions: in vivo, read-out: Vz
GL261 [18] = assay: Induction of mitochondrial membrane potential loss in mouse GL261 cells at 0.5 to 2 uM incubated for 24 hrs by JC-1 staining based flow cytometry assay; type: functional, cell-based; conditions: dose 0.5-2 µM
U-87 MG [19] = assay: Anti-proliferative activity against human U-87 MG cells assessed as decrease in cell viability incubated for 24 to 72 hrs by CCK8 assay; type: functional, cell-based; conditions: U-87MG ATCC, dose 0.5-10 µM, time 24-72 hrs
GL261 [20] = assay: In vivo induction of autophagy in mouse GL261 cells transfected with mRFP-GFPLC3 adenovirus allografted in C57BL/6J mouse model assessed as LC3 puncta in tumor tissue at 2.5 to 5 mg/kg, ip by immunofluorescence assay; type: functional, organism-based; conditions: dose 2.5-5 mg/kg
GL261 [21] = assay: Anti-proliferative activity against mouse GL261 cells assessed as cell viability incubated for 2 hrs by CCK8 assay; type: functional, cell-based; conditions: GL261, 2 h
[22] = AUC (0 to infinity) in C57BL6/J mouse at 5 mg/kg, iv measured upto 24 hrs by LC-MS/MS analysis; type: ADME, organism-based; design: dose 5 mg/kg, time < 24 hrs, route iv; conditions: in vivo
[23] = Drug uptake in C57BL6/J mouse brain at 20 mg/kg, ip measured after 2 hrs by LC-MS/MS analysis; type: ADME, organism-based; conditions: in vivo
[24] = target: ALK tyrosine kinase receptor (Mus musculus) (UniProt P97793); assay: Binding affinity to ALK in mouse GL261 cell lysate assessed as immunoprecipitation measured after overnight incubation by pull-down assay; type: subcellular
[25] = Tmax in C57BL6/J mouse at 5 mg/kg, ip measured upto 24 hrs by LC-MS/MS analysis; type: ADME, organism-based; conditions: in vivo
[26] = target: ALK tyrosine kinase receptor (Mus musculus) (UniProt P97793); assay: Binding affinity to ALK in mouse GL261 cell lysate assessed as increase in thermal stability of the protein measured after 4 hrs by […] based CETSA analysis; type: subcellular
GL261 [27] = assay: Induction of autophagy in mouse GL261 cells transfected with mRFP-GFPLC3 adenovirus assessed as yellow fluorescence pretreated with CQ for 30 mins followed by treated at 2 uM measured after 48 hrs by confocal microscopy; type: functional, cell-based
GL261 [28] = assay: In vivo induction of apoptosis in mouse GL261 cells transfected with mRFP-GFPLC3 adenovirus allografted in C57BL/6J mouse model assessed as increase in cleaved PARP level in tumor tissue at 2.5 to 5 mg/kg, ip by immunofluorescence assay; type: functional, organism-based; conditions: dose 2.5-5 mg/kg
GL261 [29] = assay: Anti-glioblastoma activity against mouse GL261-mNeonGreenLuc cells stereotaxically injected in corpus striatum of orthotopic glioblastoma mouse model assessed as decrease in Ki67 expression in GFP-labeled glioblastoma tissue at 5 mg/kg, ip once daily measured on day 21 by confocal microscopy; type: functional, organism-based
GL261 [30] = assay: Induction of autophagy in mouse GL261 cells assessed as increase in LC3BII levels at 0.5 to 2 uM incubated for 24 hrs by Western blot analysis; type: functional, cell-based; conditions: dose 0.5-2 µM
GL261 [31] = assay: Anti glioblastoma activity against mouse GL261-mNeonGreenLuc cells stereotaxically injected in corpus striatum of orthotopic glioblastoma mouse model assessed as inhibition of tumor growth at 5 mg/kg, ip once daily measured on day 21 by immunofluorescence imaging analysis; type: functional, organism-based
GL261 [32] = assay: Induction of apoptosis in mouse GL261 cells assessed as increase in cleaved PARP level measured at 0.5 to 2 uM after 24 hrs by Western blot analysis; type: functional, cell-based; conditions: dose 0.5-2 µM
[33] = AUC (0 to 8hrs) in C57BL6/J mouse at 5 mg/kg, iv measured upto 24 hrs by LC-MS/MS analysis; type: ADME, organism-based; design: dose 5 mg/kg, time < 24 hrs, route iv; conditions: in vivo
[34] = Bioavailability in C57BL6/J mouse at 5 mg/kg, […] measured upto 24 hrs by LC-MS/MS analysis; type: ADME, organism-based; conditions: in vivo

- inhibition [1]: Active
- inhibition [3]: Active
- MRT inf [6]: 276 min
- Tmax [7]: 4.8 min
- half-life [9]: 67.8 min
- Vd [11]: 4.59 L/kg
- inhibition [12]: Active
- AUC(0-t) at 24 h [14]: 340 ng·h/mL
- MRT last at 24 h [16]: 37.8 min
- Vd [17]: 8.89 L/kg
- AUC(0-inf) [22]: 925 ng·h/mL
- Drug uptake [23]: 2.7 µmol/kg
- Activity [24]: Active
- Tmax [25]: 34.8 min
- Activity [26]: Active
- AUC(0-t) at 24 h [33]: 885 ng·h/mL
- bioavailability [34]: 38.4%
SMILES: Cc1ccc(S(=O)(=O)n2cc(Cc3cc(C)c(O)c(C)c3)c3ccccc32)cc1
- inhibition at 160 µM (HeLa): 50%
- Activity (GL261 [2]): Active
- Activity (GL261 [4]): Active
- Activity (GL261 [5]): Tde
- Activity (GL261 [8]): Active
- Activity (GL261 [10]): Active
- Activity (Mus musculus): Active
- Activity (U-87 MG [13]): Tde
- Activity (GL261 [15]): inactive
- Activity (GL261 [18]): Active
- Activity (U-87 MG [19]): Dose-Dependent Effect
- Activity (GL261 [20]): Active
- IC50 (GL261 [21]): 1350 nM
- Activity (GL261 [27]): inactive
- Activity (GL261 [28]): Active
- Activity (GL261 [29]): Active
- Activity (GL261 [30]): Active
- inhibition (GL261 [31]): Active
- Activity (GL261 [32]): Active
